Test: Stability study of AZD1236 aqueous formulation (HPLC)
Format: physicochemical
Details: for Conc. / pH: aqueous formulation; for Conc. / Total imp. RRT(%): HPLC; for ∆%: relative to starting concentration of 70µg/5mL
Protocol: Summary table of stability as assessed by HPLC over 24 months stored under GMP conditions at RT. Data shown in blue represents inverted position vials. ∆% is relative to starting concentration of 70µg/5mL at time zero. Acceptance criteria: Retention time (RT) for AZD1236 is 3.97 min (Range 3.40-4.50 min). Total impurities – report as RRT (%) for each impurity. Biological functionality LOD = >21µg/5mL. pH 7.5 (7.0-8.0).

[1] = room temperature, 12m, 1st of 2 vials
[2] = room temperature, 12m, 2nd of 2 vials
[3] = room temperature, 18m, 1st of 2 vials
[4] = room temperature, 18m, 2nd of 2 vials
[5] = room temperature, 24m, 1st of 2 vials
[6] = room temperature, 24m, 2nd of 2 vials
[7] = room temperature, 1m, 1st of 2 vials
[8] = room temperature, 1m, 2nd of 2 vials
[9] = room temperature, 3m, 1st of 2 vials
[10] = room temperature, 3m, 2nd of 2 vials
[11] = room temperature, 6m, 1st of 2 vials
[12] = room temperature, 6m, 2nd of 2 vials
[13] = room temperature, 10.5m, 1st of 2 vials
[14] = room temperature, 10.5m, 2nd of 2 vials
[15] = room temperature, 24h, 1st of 2 vials
[16] = room temperature, 24h, 2nd of 2 vials
[17] = room temperature, 15d, 1st of 2 vials
[18] = room temperature, 15d, 2nd of 2 vials

For AZD1236, the “biological functionality in aqueous formulation” value (24 months, GMP conditions at RT, biological functionality LOD = >21µg/5mL) was “remains biologically functional”, the “degradation in aqueous formulation of the drug product (HPLC traces)” value (after 24 months, stored at ambient temperature) was “no degradation” and the Conc. (room temperature, 1m, 1st of 2 vials (one inverted)) was 77.0 µg per 5mL. For the same substance, the Conc. (room temperature, 1m, 2nd of 2 vials (one inverted)) was 76.8 µg per 5mL, the Conc. (room temperature, 3m, 1st of 2 vials (one inverted)) was 69.4 µg per 5mL and the Conc. (room temperature, 3m, 2nd of 2 vials (one inverted)) was 69.4 µg per 5mL. It also gave a Conc. (room temperature, 6m, 1st of 2 vials (one inverted)) of 70.8 µg per 5mL, a Conc. (room temperature, 6m, 2nd of 2 vials (one inverted)) of 70.6 µg per 5mL and a Conc. (room temperature, 10.5m, 1st of 2 vials (one inverted)) of 71.1 µg per 5mL. For the same substance, the Conc. (room temperature, 10.5m, 2nd of 2 vials (one inverted)) was 70.7 µg per 5mL, the pH [1] was 7.5 and the pH [2] was 7.5. The Conc. (room temperature, 12m, 1st of 2 vials (one inverted)) was 70.0 µg per 5mL, the Conc. (room temperature, 12m, 2nd of 2 vials (one inverted)) was 69.2 µg per 5mL and the pH [3] was 7.5. The pH [4] was 7.5, the Conc. (room temperature, 18m, 1st of 2 vials (one inverted)) was 70.4 µg per 5mL and the Conc. (room temperature, 18m, 2nd of 2 vials (one inverted)) was 70.2 µg per 5mL. The pH [5] was 7.5, the pH [6] was 7.5 and the Conc. (room temperature, 24m, 1st of 2 vials (one inverted)) was 72.96 µg per 5mL. For the same substance, the Conc. (room temperature, 24m, 2nd of 2 vials (one inverted)) was 72.52 µg per 5mL, the Conc. (room temperature, 24h, 1st of 2 vials (one inverted)) was 74.3 µg per 5mL and the Conc. (room temperature, 24h, 2nd of 2 vials (one inverted)) was 74.5 µg per 5mL. It also gave a Conc. (room temperature, 15d, 1st of 2 vials (one inverted)) of 70.2 µg per 5mL, a Conc. (room temperature, 15d, 2nd of 2 vials (one inverted)) of 70.3 µg per 5mL and a pH (timepoint 0) of 7.5. For the same substance, the “∆%” value [7] was “+10.0%”, the “∆%” value [8] was “+9.70%” and the “∆%” value [9] was -0.90%. The “∆%” value [10] was -0.90%, the “∆%” value [11] was “+1.00%” and the “∆%” value [12] was “+0.80%”. For the same substance, the “∆%” value [13] was “+1.50%”, the “∆%” value [14] was “+1.00%” and the “∆%” value [1] was “+0.00%”. The “∆%” value [2] was -1.15%, the “∆%” value [3] was “+0.6%” and the “∆%” value [4] was “+0.3%”. The “∆%” value [5] was “+4.2%”, the “∆%” value [6] was “+3.6%” and the “∆%” value [15] was “+6.0%”. For the same substance, the “∆%” value [16] was “+6.0%”, the “∆%” value [17] was “+0.14%” and the “∆%” value [18] was “+0.21%”. For the same substance, the “Total imp. RRT(%)” value [7] was “ND/NQ ND/NQ”, the “Total imp. RRT(%)” value [8] was “ND/NQ ND/NQ” and the “Total imp. RRT(%)” value [9] was “ND/NQ ND/NQ”. For the same substance, the “Total imp. RRT(%)” value [10] was “ND/NQ ND/NQ”, the “Total imp. RRT(%)” value [11] was “ND/NQ ND/NQ” and the “Total imp. RRT(%)” value [12] was “ND/NQ ND/NQ”. For the same substance, the “Total imp. RRT(%)” value [13] was “ND/NQ ND/NQ”, the “Total imp. RRT(%)” value [14] was “ND/NQ ND/NQ” and the “Total imp. RRT(%)” value [1] was “ND/NQ ND/NQ”. The “Total imp. RRT(%)” value [2] was “ND/NQ ND/NQ”, the “Total imp. RRT(%)” value [3] was “ND/NQ ND/NQ” and the “Total imp. RRT(%)” value [4] was “ND/NQ ND/NQ”. For the same substance, the “Total imp. RRT(%)” value [5] was “ND/NQ ND/NQ”, the “Total imp. RRT(%)” value [6] was “ND/NQ ND/NQ” and the “Total imp. RRT(%)” value [15] was “ND/NQ ND/NQ”. The “Total imp. RRT(%)” value [16] was “ND/NQ ND/NQ”, the “Total imp. RRT(%)” value [17] was “ND/NQ ND/NQ” and the “Total imp. RRT(%)” value [18] was “ND/NQ ND/NQ”.
